Legend:
[1] = target: PDGFR-α (Homo sapiens, UniProt P16234); experiment: PDGFR-α in vitro kinase activity assay (HTRF kinEASE TK); assay type: biochemical; details: for inhibition at 0.01 µM: compound 10 nM, read-out: PDGFRα inhibition rate, 10 nM; for inhibition at 0.1 µM: compound 100 nM, read-out: PDGFRα inhibition rate, 100 nM
Text: (§1) CSF-1R, PDGFR-α, KDR (VEGFR2) and KIT in vitro Kinase Activity Assay:
(§2) • ENVISION (Perkinelmer, 2104) • White 384-well MicroPlate (Cat #264706, Nunc) • HTRF kinEASE TK kit main reagents (Cat #62TKOPEC, Cisbio) • TK-biotin substrate • Streptavidin-XL665 • TK Antibody-Cryptate • 5× Enzymatic buffer (5×KB) • Staphylococcal enterotoxin B (SEB) • HTRF Detection buffer • CSF-1R (Cat #PV3249, Invitrogen) • PDGFR-α (Cat #PV3811, Invitrogen) • KDR (Cat #PV3660, Invitrogen) • KIT (Cat #08-156, Carna) • ATP 10 mM (Cat #PV3227, Invitrogen) • DTT 1 M (Cat #D5545, Sigma) • MgCl2 1 M (Cat #M8266, Sigma) • MnCl2 1 M (Cat #244589, Sigma)
(§3) Dilute Substrate-TK and ATP to 5× of the reaction concentration using 1× Kinase Buffer.
(§4) Prepare the 5× enzyme working solution using 1× Kinase Buffer.
(§5) Prepare the 4×Sa-XL665 working solution using Detection Buffer.
(§6) Dilute TK-Ab-Cryptate 100 times using Detection Buffer to prepare the working solution.
(§7) After all reagents were prepared according to the methods described above, except for the enzyme, they were equilibrated to room temperature before starting the sample addition. • a) First, 2.5% DMSO solutions were prepared separately using the pre-prepared 1× kinase buffer (DMSO concentrations that were too high could affect the reaction, so the final concentration of DMSO was controlled at 1%). Then, the corresponding 2.5% DMSO solution for the enzyme was used to dilute the test compounds. Compounds were screened with two concentrations of 100 nM and 10 nM. Except for the control wells, 4 μL of the diluted test compound solution was added to the reaction wells, and 4 μL of the pre-prepared 2.5% DMSO solution was added to the control wells. • b) 2 μL of the pre-prepared TK-biotin substrate solution at the corresponding concentration for the kinase was added to all reaction wells. • c) 2 μL of the pre-prepared enzyme solution at the corresponding concentration was added to all reaction wells except the negative control wells. For the negative control wells, 2 μL of 1× kinase buffer corresponding to the enzyme was added to make up the volume. The plate was sealed with sealing film, mixed gently, and incubated at room temperature for 10 min to allow the compounds to fully interact with the enzyme. • d) 2 μL of the ATP solution at the corresponding concentration for the enzyme was added to all reaction wells to initiate the kinase reaction. ATP concentrations and reaction times for enzyme screening are shown in Table 26 • e) Five minutes before the end of the kinase reaction, the detection solution was prepared. The detection buffer from the kit was used to prepare detection solutions for Streptavidin-XL665 and TK antibody europium cryptate (1:100) at the appropriate concentrations for the two enzymes. • f) After the kinase reaction was completed, 5 μL of the diluted Streptavidin-XL665 solution was added to all reaction wells. After mixing, the diluted TK antibody europium cryptate detection solution was immediately added. • g) The plate was sealed and mixed, incubated at room temperature for 1 hour, and the fluorescence signal was detected using the ENVISION (PerkinElmer) instrument (excitation at 320 nm, emission at 665 nm and 615 nm). The inhibition rate for each well was calculated based on the full-activity control wells and background signal wells, and the average value of the replicates was taken.

[2] = target: KDR (VEGFR2) (Homo sapiens, UniProt P35968); experiment: KDR (VEGFR2) in vitro kinase activity assay (HTRF kinEASE TK); assay type: biochemical; details: for inhibition at 0.01 µM: compound 10 nM, read-out: VEGFR2 inhibition rate, 10 nM; for inhibition at 0.1 µM: compound 100 nM, read-out: VEGFR2 inhibition rate, 100 nM
Text: as §1, §2, §3, §4, §5, §6, §7

Sequence of KDR (VEGFR2) (P35968 20-1356): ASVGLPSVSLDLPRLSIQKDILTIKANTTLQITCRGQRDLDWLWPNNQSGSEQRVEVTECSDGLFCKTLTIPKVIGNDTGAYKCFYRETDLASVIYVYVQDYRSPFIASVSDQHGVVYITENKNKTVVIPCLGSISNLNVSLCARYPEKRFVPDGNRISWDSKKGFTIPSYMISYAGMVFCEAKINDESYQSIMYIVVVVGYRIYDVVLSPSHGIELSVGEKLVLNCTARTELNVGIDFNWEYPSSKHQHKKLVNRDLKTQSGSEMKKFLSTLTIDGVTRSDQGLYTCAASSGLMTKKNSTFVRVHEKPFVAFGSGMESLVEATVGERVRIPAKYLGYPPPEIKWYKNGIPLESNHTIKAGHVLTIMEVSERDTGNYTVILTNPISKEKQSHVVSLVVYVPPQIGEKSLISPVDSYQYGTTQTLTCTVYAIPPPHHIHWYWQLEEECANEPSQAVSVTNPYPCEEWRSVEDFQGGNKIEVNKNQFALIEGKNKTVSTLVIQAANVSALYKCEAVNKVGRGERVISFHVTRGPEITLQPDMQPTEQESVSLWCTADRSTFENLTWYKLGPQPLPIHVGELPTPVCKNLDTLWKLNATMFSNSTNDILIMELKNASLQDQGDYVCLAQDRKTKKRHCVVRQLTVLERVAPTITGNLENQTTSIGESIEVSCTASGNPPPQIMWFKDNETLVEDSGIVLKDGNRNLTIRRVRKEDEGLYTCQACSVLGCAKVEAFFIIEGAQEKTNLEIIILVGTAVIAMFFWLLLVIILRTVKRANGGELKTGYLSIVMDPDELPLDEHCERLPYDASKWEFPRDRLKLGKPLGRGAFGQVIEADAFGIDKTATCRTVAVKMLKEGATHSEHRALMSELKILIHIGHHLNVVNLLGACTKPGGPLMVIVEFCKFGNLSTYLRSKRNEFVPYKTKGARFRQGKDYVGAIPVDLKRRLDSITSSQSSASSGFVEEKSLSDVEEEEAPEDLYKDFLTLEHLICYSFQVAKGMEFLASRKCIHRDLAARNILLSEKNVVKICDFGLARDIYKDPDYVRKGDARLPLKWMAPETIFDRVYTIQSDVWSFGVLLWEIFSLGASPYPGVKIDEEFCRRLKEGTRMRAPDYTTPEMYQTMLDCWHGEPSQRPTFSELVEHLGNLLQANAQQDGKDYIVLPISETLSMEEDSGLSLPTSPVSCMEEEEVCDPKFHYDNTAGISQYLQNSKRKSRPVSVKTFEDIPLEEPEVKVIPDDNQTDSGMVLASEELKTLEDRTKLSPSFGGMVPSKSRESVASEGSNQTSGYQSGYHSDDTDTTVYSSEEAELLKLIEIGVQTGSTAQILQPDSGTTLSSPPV
Sequence of PDGFR-α (P16234 24-1089): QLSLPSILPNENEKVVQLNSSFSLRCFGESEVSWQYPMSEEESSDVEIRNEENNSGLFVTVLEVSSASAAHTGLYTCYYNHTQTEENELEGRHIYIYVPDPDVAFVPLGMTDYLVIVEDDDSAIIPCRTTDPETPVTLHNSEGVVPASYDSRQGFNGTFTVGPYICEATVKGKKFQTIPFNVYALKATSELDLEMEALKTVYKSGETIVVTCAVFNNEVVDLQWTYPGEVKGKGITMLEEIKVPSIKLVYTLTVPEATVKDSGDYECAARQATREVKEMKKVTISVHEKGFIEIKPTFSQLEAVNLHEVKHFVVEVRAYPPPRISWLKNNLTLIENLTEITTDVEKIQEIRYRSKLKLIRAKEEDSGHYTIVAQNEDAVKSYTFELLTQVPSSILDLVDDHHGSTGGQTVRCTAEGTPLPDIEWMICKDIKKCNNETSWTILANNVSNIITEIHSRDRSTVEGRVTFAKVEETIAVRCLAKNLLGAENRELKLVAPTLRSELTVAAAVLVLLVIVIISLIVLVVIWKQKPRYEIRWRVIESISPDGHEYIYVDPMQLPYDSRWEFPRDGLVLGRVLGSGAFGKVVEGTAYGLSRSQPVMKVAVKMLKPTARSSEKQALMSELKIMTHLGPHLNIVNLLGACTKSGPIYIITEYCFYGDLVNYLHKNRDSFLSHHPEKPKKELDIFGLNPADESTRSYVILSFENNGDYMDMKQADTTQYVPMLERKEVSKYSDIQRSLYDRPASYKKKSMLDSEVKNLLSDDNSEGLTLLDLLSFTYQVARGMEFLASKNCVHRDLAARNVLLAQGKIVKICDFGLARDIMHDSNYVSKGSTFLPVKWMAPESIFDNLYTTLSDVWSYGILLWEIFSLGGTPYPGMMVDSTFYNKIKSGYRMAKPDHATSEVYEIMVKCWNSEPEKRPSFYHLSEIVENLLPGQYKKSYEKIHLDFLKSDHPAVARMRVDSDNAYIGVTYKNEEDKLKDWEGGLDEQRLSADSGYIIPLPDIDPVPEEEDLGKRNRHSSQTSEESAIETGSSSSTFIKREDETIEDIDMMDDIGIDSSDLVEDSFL

| inhibition at 0.01 µM [1] [%] | inhibition at 0.1 µM [1] [%] | inhibition at 0.01 µM [2] [%] | inhibition at 0.1 µM [2] [%] | SMILES |
| --- | --- | --- | --- | --- |
| 13.7 | 53.1 | 85.4 | 98.3 | Cn1ncc2ncc(O[C@H]3CCc4c(C(=O)Nc5cncc(Cl)c5)cccc43)cc21 [Compound 76ac, (S)—N-(5-chloropyridin-3-yl)-1-((1-methyl-1H-pyrazolo[4,3-b]pyridin-6-yl)oxy)-2,3-dihydro-1H-indene-4-carboxamide] |
| 37.8 | 89.3 | 96.5 | 102 | Cn1cc2ncc(O[C@H]3CCc4c(C(=O)Nc5cncc(Cl)c5)cccc43)cc2n1 [Compound 76ai] |

The remaining lines, values behind:

| SMILES | inhibition at 0.01 µM [1] [%] | inhibition at 0.1 µM [1] [%] | inhibition at 0.01 µM [2] [%] | inhibition at 0.1 µM [2] [%] |
| --- | --- | --- | --- | --- |
| Cn1cc(-c2cncc(N[C@H]3CCc4c(C(=O)Nc5ccc(C(F)(F)F)nc5)cccc43)c2)cn1 [Compound 14ah] | 67.6 | 99.4 | 26.8 | 58.1 |
| CN1CCc2ccc(NC(=O)c3cccc4c3CC[C@@H]4Nc3cncc(-c4cnn(C)c4)c3)cc2C1 [Compound 14ap] | 72.8 | 98.8 | 14.7 | 66.2 |
| CN(c1cncc(-c2cnn(C)c2)c1)[C@H]1CCc2c(C(=O)Nc3cccc(C4CC4)c3)cccc21 [Compound 22a, (S)—N-(3-cyclopropylphenyl)-1-(methyl (5-(1-methyl-1H-pyrazol-4-yl)pyridin-3-yl)amino)-2,3-dihydro-1H-indene-4-carboxamide] | 62.9 | 60.5 | 52.5 | 96.4 |
| Cn1cc(-c2cncc(O[C@H]3CCc4c(C(=O)Nc5cncc(Cl)c5)cccc43)c2)cn1 [Compound 19a, (S)—N-(5-chloropyridin-3-yl)-1-((5-(1-methyl-1H-pyrazol-4-yl)pyridin-3-yl)oxy)-2,3-dihydro-1H-indene-4-carboxamide] | 40.5 | 86.2 | 92.3 | 101 |
